# Measurements published in ChEMBL document CHEMBL1131161 (J Med Chem, 1998).
# Columns and labels:
# [1] = system: CV-1; experiment: Inhibitory concentration in CV-1 cell; type: functional, cell-based, Cercopithecidae; settings: Chlorocebus aethiops
# [2] = target: T1, Progesterone receptor (Homo sapiens, UniProt P06401); experiment: Effective concentration (EC50) against human progesterone receptor expressed in CV-1 cell; type: functional, cell-based
# T1 sequence (P06401 whole entry): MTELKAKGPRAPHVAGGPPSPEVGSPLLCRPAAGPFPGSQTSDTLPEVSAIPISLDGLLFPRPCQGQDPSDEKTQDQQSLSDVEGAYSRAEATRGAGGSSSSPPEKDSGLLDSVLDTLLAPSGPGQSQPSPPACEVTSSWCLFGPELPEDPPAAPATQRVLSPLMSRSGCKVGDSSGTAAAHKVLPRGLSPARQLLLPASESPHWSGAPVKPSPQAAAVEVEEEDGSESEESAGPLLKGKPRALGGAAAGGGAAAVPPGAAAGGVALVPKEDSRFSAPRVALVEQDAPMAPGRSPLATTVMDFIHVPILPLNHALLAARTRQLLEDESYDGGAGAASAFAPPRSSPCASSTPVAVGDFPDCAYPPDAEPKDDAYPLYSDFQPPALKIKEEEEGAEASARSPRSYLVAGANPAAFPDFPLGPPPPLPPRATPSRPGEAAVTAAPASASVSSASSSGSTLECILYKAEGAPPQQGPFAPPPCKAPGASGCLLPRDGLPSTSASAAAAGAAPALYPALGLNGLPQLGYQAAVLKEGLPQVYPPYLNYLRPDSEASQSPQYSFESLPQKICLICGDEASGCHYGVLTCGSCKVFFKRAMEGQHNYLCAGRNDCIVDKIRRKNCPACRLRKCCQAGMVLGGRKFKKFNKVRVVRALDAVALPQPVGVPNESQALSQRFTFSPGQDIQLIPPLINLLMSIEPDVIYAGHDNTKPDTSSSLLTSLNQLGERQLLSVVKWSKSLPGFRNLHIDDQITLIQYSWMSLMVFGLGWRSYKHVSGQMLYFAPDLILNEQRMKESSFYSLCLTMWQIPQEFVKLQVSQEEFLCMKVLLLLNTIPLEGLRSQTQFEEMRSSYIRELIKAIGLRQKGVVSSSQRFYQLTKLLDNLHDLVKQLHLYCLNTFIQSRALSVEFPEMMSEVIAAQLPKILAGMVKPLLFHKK
# [3] = target: Estrogen receptor (Homo sapiens, UniProt Q92731+P03372); settings: cv-1
# Description: IC50 determined against human estrogen receptor in CV-1 cells
# [4] = target: T2, Androgen receptor (Homo sapiens, UniProt P10275)
# T2 sequence (P10275 whole entry): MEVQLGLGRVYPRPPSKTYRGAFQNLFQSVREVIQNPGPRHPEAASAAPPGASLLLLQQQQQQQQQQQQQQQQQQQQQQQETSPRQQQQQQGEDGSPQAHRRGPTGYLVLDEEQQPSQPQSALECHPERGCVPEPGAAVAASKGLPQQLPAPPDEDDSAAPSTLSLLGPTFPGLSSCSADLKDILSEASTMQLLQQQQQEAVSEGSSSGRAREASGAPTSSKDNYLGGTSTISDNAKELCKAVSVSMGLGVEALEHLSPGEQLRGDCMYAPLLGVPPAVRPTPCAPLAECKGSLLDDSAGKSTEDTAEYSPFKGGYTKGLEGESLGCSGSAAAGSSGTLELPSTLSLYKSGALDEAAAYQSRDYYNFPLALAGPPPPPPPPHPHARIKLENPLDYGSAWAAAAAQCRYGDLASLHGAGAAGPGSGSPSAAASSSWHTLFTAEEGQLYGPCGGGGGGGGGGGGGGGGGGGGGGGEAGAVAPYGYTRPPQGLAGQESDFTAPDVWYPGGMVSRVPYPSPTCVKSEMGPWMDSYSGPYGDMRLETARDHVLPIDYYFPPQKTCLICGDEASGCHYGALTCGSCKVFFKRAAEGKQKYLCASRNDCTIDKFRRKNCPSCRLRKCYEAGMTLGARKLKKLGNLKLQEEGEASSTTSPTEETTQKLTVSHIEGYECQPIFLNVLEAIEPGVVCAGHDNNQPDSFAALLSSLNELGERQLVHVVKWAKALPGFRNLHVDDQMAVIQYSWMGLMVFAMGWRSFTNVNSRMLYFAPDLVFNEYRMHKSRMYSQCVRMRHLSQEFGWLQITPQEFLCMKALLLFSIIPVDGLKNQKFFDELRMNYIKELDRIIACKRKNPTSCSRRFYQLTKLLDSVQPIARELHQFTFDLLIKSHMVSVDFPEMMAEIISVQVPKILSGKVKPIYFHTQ
# Description: Inhibitory activity (IC50) against human androgen receptor expressed in CV-1 cells
# [5] = target: T3, Glucocorticoid receptor (Homo sapiens, UniProt P04150); experiment: biochemical
# T3 sequence (P04150 whole entry): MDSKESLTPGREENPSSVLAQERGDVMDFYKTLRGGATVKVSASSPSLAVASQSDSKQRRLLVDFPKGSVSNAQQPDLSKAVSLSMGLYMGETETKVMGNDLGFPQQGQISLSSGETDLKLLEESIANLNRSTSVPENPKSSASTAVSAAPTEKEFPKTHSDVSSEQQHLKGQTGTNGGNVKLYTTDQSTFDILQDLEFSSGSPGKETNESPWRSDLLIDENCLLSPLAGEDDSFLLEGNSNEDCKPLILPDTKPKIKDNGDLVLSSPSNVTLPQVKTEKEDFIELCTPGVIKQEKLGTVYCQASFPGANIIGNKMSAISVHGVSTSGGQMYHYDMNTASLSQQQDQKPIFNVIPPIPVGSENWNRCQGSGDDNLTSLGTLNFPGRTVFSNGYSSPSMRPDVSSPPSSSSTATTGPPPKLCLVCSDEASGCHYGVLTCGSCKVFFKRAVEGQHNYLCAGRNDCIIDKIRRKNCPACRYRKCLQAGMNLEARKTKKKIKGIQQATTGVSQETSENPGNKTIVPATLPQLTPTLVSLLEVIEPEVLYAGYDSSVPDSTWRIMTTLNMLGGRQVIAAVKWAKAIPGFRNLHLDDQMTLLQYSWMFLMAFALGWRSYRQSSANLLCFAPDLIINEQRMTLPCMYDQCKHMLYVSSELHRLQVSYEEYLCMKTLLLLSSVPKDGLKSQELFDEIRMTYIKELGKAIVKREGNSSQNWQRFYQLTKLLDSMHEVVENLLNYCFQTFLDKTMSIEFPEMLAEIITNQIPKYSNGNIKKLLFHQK
# Description: Binding affinity against human glucocorticoid receptor expressed in SF-12 cells
# [6] = target: T2, Androgen receptor; remark: listed apart in the source
# Description: Binding affinity against human androgen receptor
# [7] = target: T4, Mineralocorticoid receptor (Homo sapiens, UniProt P08235); experiment: Inhibitory activity (IC50) against human mineralocorticoid receptor expressed in CV-1 cells; type: functional, cell-based
# T4 sequence (P08235 whole entry): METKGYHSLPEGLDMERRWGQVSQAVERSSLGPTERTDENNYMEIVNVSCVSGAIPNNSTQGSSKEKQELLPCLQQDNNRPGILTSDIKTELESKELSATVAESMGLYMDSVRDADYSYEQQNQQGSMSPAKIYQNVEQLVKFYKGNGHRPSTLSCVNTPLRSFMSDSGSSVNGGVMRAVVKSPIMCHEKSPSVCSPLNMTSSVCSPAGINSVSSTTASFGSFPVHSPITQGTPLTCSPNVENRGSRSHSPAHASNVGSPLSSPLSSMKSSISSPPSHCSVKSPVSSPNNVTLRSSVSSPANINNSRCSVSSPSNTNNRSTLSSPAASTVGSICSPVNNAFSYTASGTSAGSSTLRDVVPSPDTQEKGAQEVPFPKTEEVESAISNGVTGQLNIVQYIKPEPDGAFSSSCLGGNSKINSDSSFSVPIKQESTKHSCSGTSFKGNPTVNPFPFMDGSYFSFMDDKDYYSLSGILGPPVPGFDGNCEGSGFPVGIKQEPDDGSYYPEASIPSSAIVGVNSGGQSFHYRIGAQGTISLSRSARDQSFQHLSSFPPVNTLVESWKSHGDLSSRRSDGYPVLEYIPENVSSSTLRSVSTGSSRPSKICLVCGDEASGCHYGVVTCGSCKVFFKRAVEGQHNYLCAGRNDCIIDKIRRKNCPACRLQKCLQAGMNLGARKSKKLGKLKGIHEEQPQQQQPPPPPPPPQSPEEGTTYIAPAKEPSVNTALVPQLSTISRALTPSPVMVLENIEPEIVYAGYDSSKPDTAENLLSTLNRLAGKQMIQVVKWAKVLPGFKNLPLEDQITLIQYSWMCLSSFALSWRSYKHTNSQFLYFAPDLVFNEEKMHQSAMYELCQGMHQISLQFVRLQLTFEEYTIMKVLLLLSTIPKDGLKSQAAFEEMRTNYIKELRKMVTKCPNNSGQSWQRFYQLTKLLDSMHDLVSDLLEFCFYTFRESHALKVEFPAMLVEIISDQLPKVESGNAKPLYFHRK
# [8] = target: T3, Glucocorticoid receptor
# Description: Inhibitory activity (IC50) against human glucocorticoid receptor expressed in CV-1 cells
# [9] = target: T1, Progesterone receptor; experiment: Binding affinity against human progesterone receptor
# [10] = system: CV-1; experiment: Inhibitory concentration was determined from full dose response curves ranging from 10 E -12 to 10 E -5M in CV-1 cell; type: functional, Cercopithecidae
# [11] = system: CV-1; experiment: inhibitory concentration was determined from full dose response curves ranging from 10 E -12 to 10 E -5M in CV-1 cell; type: functional, cell-based, Cercopithecidae; settings: Chlorocebus aethiops
SMILES,IC50 [1] [µM],EC50 [2] [µM],Ki [9] [µM],also measured
CC1=CC(C)(C)Nc2ccc3c(c21)/C(=C/c1ccc(Br)cc1)Oc1ccccc1-3,> 10,0.0315,0.0087,–
CC1=CC(C)(C)Nc2ccc3c(c21)/C(=C/c1cccc(Br)c1)Oc1ccccc1-3,> 10,0.037,0.0221,–
CC1=CC(C)(C)Nc2ccc3c(c21)/C(=C/c1cccc(F)c1)Oc1ccccc1-3,> 10,0.0076,0.00083,IC50 [3]: > 10 µM; IC50 [4]: 0.795 µM; Ki [5]: 0.18 µM; Ki [6]: 0.798 µM; IC50 [7]: > 10 µM; IC50 [8]: 0.458 µM
CC1=CC(C)(C)Nc2ccc3c(c21)/C(=C/c1ccccc1Br)Oc1ccccc1-3,> 10,0.0578,0.0055,–
CC1=CC(C)(C)Nc2ccc3c(c21)/C(=C/c1cccc(Cl)c1)Oc1ccccc1-3,> 10,0.117,0.0187,–
CC1=CC(C)(C)Nc2ccc3c(c21)/C(=C/c1cc(F)cc(F)c1)Oc1ccccc1-3,> 10,0.0477,0.0126,–
CC1=CC(C)(C)Nc2ccc3c(c21)/C(=C/c1cccc(C)c1)Oc1ccccc1-3,> 10,0.075,0.0397,–
CC1=CC(C)(C)Nc2ccc3c(c21)/C(=C/c1ccccc1Cl)Oc1ccccc1-3,> 10,0.0578,0.0013,–
CC1=CC(C)(C)Nc2ccc3c(c21)/C(=C/c1ccccc1F)Oc1ccccc1-3,> 10,0.029,0.0056,–
CC(=O)O[C@]1(C(C)=O)CC[C@H]2[C@@H]3C[C@H](C)C4=CC(=O)CC[C@]4(C)[C@H]3CC[C@@]21C [MEDROXYPROGESTERONE ACETATE],–,–,–,IC50 [10]: >10 µM; IC50 [8]: 0.01 µM
CC(=O)[C@H]1CC[C@H]2[C@@H]3CCC4=CC(=O)CC[C@]4(C)[C@H]3CC[C@]12C [PROGESTERONE],–,–,–,IC50 [11]: > 10 µM

# Second part, led by results:
IC50 [1] [µM],EC50 [2] [µM],Ki [9] [µM],SMILES,also measured
0.29,–,–,CC1=CC(C)(C)Nc2ccc3c(c21)C(c1ccccc1)Oc1ccccc1-3 (centres undefined),–
> 10,0.0244,0.0049,CC1=CC(C)(C)Nc2ccc3c(c21)/C(=C/c1ccccc1)Oc1ccccc1-3,IC50 [3]: > 10 µM; IC50 [4]: 0.65 µM; Ki [5]: 0.299 µM; Ki [6]: 2.66 µM; IC50 [7]: 3 µM; IC50 [8]: 0.737 µM
0.531,0.0263,0.0243,CC1=CC(C)(C)Nc2ccc3c(c21)/C(=C/c1cccc(F)c1F)Oc1ccccc1-3,–
> 10,0.0595,0.0035,CC1=CC(C)(C)Nc2ccc3c(c21)/C(=C/c1ccc(F)cc1)Oc1ccccc1-3,–
0.88,0.139,0.06,CC1=CC(C)(C)Nc2ccc3c(c21)/C(=C/c1ccc(Cl)cc1)Oc1ccccc1-3,–
0.27,0.0168,0.0021,CC1=CC(C)(C)Nc2ccc3c(c21)C(Cc1ccccc1)Oc1ccccc1-3 (centres undefined),–
0.59,> 10,0.07,CC1=CC(C)(C)Nc2ccc3c(c21)/C(=C/c1ccc(C)cc1)Oc1ccccc1-3,–
0.425,> 10,0.0533,COc1cccc(/C=C2\Oc3ccccc3-c3ccc4c(c32)C(C)=CC(C)(C)N4)c1,–
0.22,0.032,0.0313,CC1=CC(C)(C)Nc2ccc3c(c21)/C(=C/c1c(F)cccc1F)Oc1ccccc1-3,–
0.55,0.022,–,CC1=CC(C)(C)Nc2ccc3c(c21)/C(=C/c1ccc(F)cc1F)Oc1ccccc1-3,–
